Source: patent US20250161235A1, “STRESS TEST AND TREATMENT OF CHRONIC KIDNEY DISEASE” (Renibus Therapeutics, Inc., priority 2020, published 2025)
“Also recorded” adds a separate entry of the source.

Tests used:
Assay type in all cases: in vivo, humans
[1] = Estimated glomerular filtration rate after administration of 90 mg tin protoporphyrin; details: mean ± 1 SD
[2] = Urine biomarkers of kidney injury after administration of 90 mg tin protoporphyrin
ferritin = assay: Plasma ferritin levels following SnPP injection
Method: Plasma ferritin levels were measured at baseline and 24+48 hrs following 90 mg SnPP injection in healthy volunteers and in CKD3/CKD4 participants. […] Means/95% confidence intervals are depicted.
(§1) Baseline and maximal (peak) plasma anti-oxidant protein concentrations, as generated with the highest test dose of SnPP (90 mg). CKD=CKD 3 and CKD 4 groups combined. […] The values presented are means and 95% confidence intervals. Please see the figures for change of values over time and statistics by ANOVA for repeated measures. […] The timing of the peak values were 4 days, 12 hrs, 12 hrs and 4 hrs for HO-1, ferritin, p21, and NQO1, respectively.

HO-1 = assay: Plasma HO-1 levels following SnPP injection
Method: Plasma HO-1 levels were measured at baseline and from 1-4 days following 9, 27, or 90 mg SnPP injection. Time and dose dependent increases were observed (mean values/95% confidence intervals depicted).
The plasma HO-1 levels rose following SnPP injection in stage 3 CKD ([…]) and stage 4 CKD ([…]) participants as shown in FIG. 2. Plasma HO-1 levels were measured at baseline and from 1-4 days following 27 mg or 90 mg SnPP injection. […] P<0.001, all in-group comparisons; ANOVA, repeated measures. The mean values/95% confidence intervals are depicted.
as §1

p21 = assay: Plasma p21 concentrations following SnPP injection
Method: There were marked variations in p21 values between participants, as reflected by large standard deviations (SDs: numbers in parentheses that appear at the bottom of the graph). (HVs=healthy volunteers; BL=baseline).
as §1

NQO1 = assay: Plasma and urinary NQO1 responses to 90 mg SnPP infusion
Method: Values are means/95% confidence intervals; urine values are after log base 10 conversion; statistics by ANOVA repeated measures, in-group comparisons.
as §1

[3] = 90 mg SnPP, healthy volunteers and CKD combined

Compound: C=Cc1c2[n-]c(c1C)/C=c1\[n-]/c(c(C)c1C=C)=C\c1[n-]c(c(CCC(=O)O)c1C)/C=c1\[n-]c(c(C)c1CCC(=O)O)=C2.[Sn+4] [SnPP, tin protoporphyrin]
- eGFR ([1]; CKD3, Day 2 post SnPP 90 mg): 50 ± 6 ml/min/1.73 m^2
- eGFR ([1]; CKD3, Day 4 post SnPP 90 mg): 47 ± 6 ml/min/1.73 m^2
- eGFR ([1]; CKD4, Day 2 post SnPP 90 mg): 23 ± 5 ml/min/1.73 m^2
- eGFR ([1]; CKD4, Day 4 post SnPP 90 mg): 22 ± 4 ml/min/1.73 m^2
- eGFR ([1]; Healthy Volunteers, Day 2 post SnPP 90 mg): 87 ± 5 ml/min/1.73 m^2
- eGFR ([1]; Healthy Volunteers, Day 4 post SnPP 90 mg): 88 ± 4 ml/min/1.73 m^2
- urine Cystatin C ([2]; CKD 3, Day 1, mean ± 1 SD): 26.8 ± 12.9 ng/mg Cr
- urine KIM-1 ([2]; CKD 3, Day 1, mean ± 1 SD): 0.8 ± 0.2 ng/mg Cr
- urine NAG ([2]; CKD 3, Day 1, mean ± 1 SD): 5.66 ± 3.44 mU/mg Cr
- urine NGAL ([2]; CKD 3, Day 1, mean ± 1 SD): 46.5 ± 35.3 ng/mg Cr
- urine Cystatin C ([2]; CKD 3, Day 2, mean ± 1 SD): 32.2 ± 9.8 ng/mg Cr
- urine KIM-1 ([2]; CKD 3, Day 2, mean ± 1 SD): 1.5 ± 0.6 ng/mg Cr
- urine NAG ([2]; CKD 3, Day 2, mean ± 1 SD): 8.2 ± 3.44 mU/mg Cr
- urine NGAL ([2]; CKD 3, Day 2, mean ± 1 SD): 35.8 ± 23.2 ng/mg Cr
- urine Cystatin C ([2]; CKD 3, Day 3, mean ± 1 SD): 34.0 ± 9.4 ng/mg Cr
- urine KIM-1 ([2]; CKD 3, Day 3, mean ± 1 SD): 1.4 ± 0.6 ng/mg Cr
- urine NAG ([2]; CKD 3, Day 3, mean ± 1 SD): 6.5 ± 1.7 mU/mg Cr
- urine NGAL ([2]; CKD 3, Day 3, mean ± 1 SD): 49.8 ± 39.7 ng/mg Cr
- urine Cystatin C ([2]; CKD 3, Day 4, mean ± 1 SD): 33.2 ± 33.2 ng/mg Cr
- urine KIM-1 ([2]; CKD 3, Day 4, mean ± 1 SD): 0.9 ± 0.2 ng/mg Cr
- urine NAG ([2]; CKD 3, Day 4, mean ± 1 SD): 5.9 ± 2.1 mU/mg Cr
- urine NGAL ([2]; CKD 3, Day 4, mean ± 1 SD): 42.6 ± 51.7 ng/mg Cr
- urine Cystatin C ([2]; CKD 4, Day 1, mean ± 1 SD): 332 ± 519 ng/mg Cr
- urine KIM-1 ([2]; CKD 4, Day 1, mean ± 1 SD): 0.8 ± 1.0 ng/mg Cr
- urine NAG ([2]; CKD 4, Day 1, mean ± 1 SD): 12.5 ± 11.34 mU/mg Cr
- urine NGAL ([2]; CKD 4, Day 1, mean ± 1 SD): 58.0 ± 79.1 ng/mg Cr
- urine Cystatin C ([2]; CKD 4, Day 2, mean ± 1 SD): 638 ± 965 ng/mg Cr
- urine KIM-1 ([2]; CKD 4, Day 2, mean ± 1 SD): 1.2 ± 1.0 ng/mg Cr
- urine NAG ([2]; CKD 4, Day 2, mean ± 1 SD): 10.6 ± 7.5 mU/mg Cr
- urine NGAL ([2]; CKD 4, Day 2, mean ± 1 SD): 64.8 ± 91.0 ng/mg Cr
- urine Cystatin C ([2]; CKD 4, Day 3, mean ± 1 SD): 186 ± 213 ng/mg Cr
- urine KIM-1 ([2]; CKD 4, Day 3, mean ± 1 SD): 1.2 ± 1.0 ng/mg Cr
- urine NAG ([2]; CKD 4, Day 3, mean ± 1 SD): 10.5 ± 5.6 mU/mg Cr
- urine NGAL ([2]; CKD 4, Day 3, mean ± 1 SD): 47.3 ± 60.2 ng/mg Cr
- urine Cystatin C ([2]; CKD 4, Day 4, mean ± 1 SD): 207 ± 238 ng/mg Cr
- urine KIM-1 ([2]; CKD 4, Day 4, mean ± 1 SD): 1.0 ± 0.8 ng/mg Cr
- urine NAG ([2]; CKD 4, Day 4, mean ± 1 SD): 6.2 ± 3.4 mU/mg Cr
- urine NGAL ([2]; CKD 4, Day 4, mean ± 1 SD): 48.0 ± 49.5 ng/mg Cr
- urine Cystatin C ([2]; HVs, Day 1, mean ± 1 SD): 32.1 ± 15.1 ng/mg Cr
- urine KIM-1 ([2]; HVs, Day 1, mean ± 1 SD): 0.7 ± 0.5 ng/mg Cr
- urine NGAL ([2]; HVs, Day 1, mean ± 1 SD): 21.1 ± 28.7 ng/mg Cr
- urine Cystatin C ([2]; HVs, Day 2, mean ± 1 SD): 34.8 ± 7.2 ng/mg Cr
- urine KIM-1 ([2]; HVs, Day 2, mean ± 1 SD): 0.8 ± 0.7 ng/mg Cr
- urine NAG ([2]; HVs, Day 2, mean ± 1 SD): 3.16 ± 1.16 mU/mg Cr
- urine NGAL ([2]; HVs, Day 2, mean ± 1 SD): 14.8 ± 13.1 ng/mg Cr
- urine Cystatin C ([2]; HVs, Day 3, mean ± 1 SD): 39.6 ± 9.4 ng/mg Cr
- urine KIM-1 ([2]; HVs, Day 3, mean ± 1 SD): 0.7 ± 0.4 ng/mg Cr
- urine NAG ([2]; HVs, Day 3, mean ± 1 SD): 2.51 ± 0.64 mU/mg Cr
- urine NGAL ([2]; HVs, Day 3, mean ± 1 SD): 14.0 ± 8.7 ng/mg Cr
- urine Cystatin C ([2]; HVs, Day 4, mean ± 1 SD): 40.4 ± 9.3 ng/mg Cr
- urine KIM-1 ([2]; HVs, Day 4, mean ± 1 SD): 0.6 ± 0.4 ng/mg Cr
- urine NAG ([2]; HVs, Day 4, mean ± 1 SD): 2.66 ± 0.8 mU/mg Cr
- urine NGAL ([2]; HVs, Day 4, mean ± 1 SD): 10.2 ± 5.6 ng/mg Cr
- timing of the peak plasma value, ferritin (ferritin; 90 mg SnPP): 12 h
- plasma ferritin increases over baseline, CKD vs healthy volunteer groups (ferritin; 90 mg SnPP injection): comparable
- peak plasma ferritin value vs baseline (ferritin; [3]): significantly higher than baseline values
- plasma ferritin levels (ferritin; baseline and 24+48 hrs following 90 mg SnPP injection, healthy volunteers and CKD3/CKD4): increase; also recorded: significant plasma ferritin increases
- timing of the peak plasma value, HO-1 (HO-1; 90 mg SnPP): 4 days
- peak plasma HO-1 value vs baseline (HO-1; [3]): significantly higher than baseline values
- plasma HO-1 levels (HO-1; healthy volunteers, baseline and 1-4 days following 9, 27, or 90 mg SnPP injection): rise in a dose dependent fashion; also recorded: rose in a dose dependent fashion
- plasma HO-1 levels (HO-1; stage 3 CKD and stage 4 CKD participants, 1-4 days following 27 mg or 90 mg SnPP injection): rise and Time and dose dependent HO-1 increases
- p21 response, CKD group compared to healthy volunteer group (p21; 90 mg SnPP): significantly blunted p21 response
- timing of the peak plasma value, p21 (p21; 90 mg SnPP): 12 h
- peak plasma p21 value vs baseline (p21; [3]): significantly higher than baseline values
- plasma p21 fold increase over baseline (mean) (p21; CKD group (combined)): 0.51
- plasma p21 (p21; healthy volunteer and CKD participants, 12 and 24 hrs post SnPP injection): plasma p21 increases
- plasma p21 fold increase over baseline (mean) (p21; healthy volunteer group): 2.65
- timing of the peak plasma value, NQO1 (NQO1; 90 mg SnPP): 4 h
- peak plasma NQO1 value vs baseline (NQO1; [3]): significantly higher than baseline values
- plasma NQO1 (NQO1; healthy volunteer and CKD participants, 90 mg SnPP injection): acute, near identical increases
- urinary NQO1/creatinine levels (NQO1; healthy volunteers and combined CKD participants, 72 hr observation period, 90 mg SnPP): significant, and progressive increases
